Measurements from PMC8512147, “Multifunctional Small Molecules as Potential Anti-Alzheimer’s Disease Agents” (Molecules, 2021).

How the values were obtained:
[1] = biological target: T1, Aβ1–42 peptide (Homo sapiens, UniProt P05067); assay: Inhibition of Cu^2+-induced Aβ1–42 aggregation, Thioflavin T fluorescence assay; type: biochemical; set-up: Amyloid-β peptide (1–42) was purchased from GeneCust; purchased GeneCust; conditions: compounds 80 μM, with copper 40 μM; ThT fluorescence; mean of two independent measurements in duplicate; read-out: Inhibition of Aβ1–42 Aggregation (%) Cu-Induced Aβ Aggr.
T1 sequence (P05067 672-713): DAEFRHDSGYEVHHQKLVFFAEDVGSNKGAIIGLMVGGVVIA
Experimental: (§1) The studied compounds (1a–e) were tested in vitro to evaluate their activity as inhibitors of Aβ1-42 peptide aggregation, through the Thioflavin T (ThT) fluorescence assay. This method is based on the strong ability of the dye ThT to bind β-amyloid fibrils and oligomers through ionic and hydrophobic interactions, while its interaction with β-amyloid monomers is extremely weak. The intercalation of compounds in the β-sheet structure of amyloid protein may prevent fibrils aggregation and ThT binding, and it is evaluated by fluorimetry. The fluorescence emission measurements were performed after overnight incubation of the self-mediated or Cu^2+-induced Aβ fibril aggregates with the studied compounds.
(§2) The inhibition of β-amyloid (Aβ) aggregation was studied through the Th-T fluorescence assay, which was performed using a Varian Cary Eclipse fluorimeter at the following wavelengths: excitation (446 nm) and emission (485 nm). Amyloid-β peptide (1–42) was purchased from GeneCust as lyophilized powder stored at −20 °C.
(§3) The method used is based on thioflavin T (ThT) fluorescence emission, which depends on the interaction of this dye with Aβ fibrils. The assay is performed with the Aβ1–42 peptide sample, which was previously prepared by solubilization of its lyophilized powder in 1,1,1,3,3,3–hexafluoro-2-propanol (HFIP), an organic solvent useful to solubilize and monomerize the β-sheets protein aggregates. After 24 h, the solution was divided into Eppendorf tubes kept in ice, and then, HFIP was left to evaporate overnight (T = 25 °C). The resultant films were stored in the freezer. […] Compounds were dissolved in MeOH (1 mg/mL) and diluted with phosphate buffer to reach a ligand stock solution of 480 μM. Two different types of experiments were prepared in a final volume of 60 μL: control ligand assays (Aβ1–42 aggregation in the absence of inhibitor) and ligand assays (effect of ligand on Aβ1–42 aggregation). For each experiment, a blank sample without Aβ1–42 was used to monitor the effect of the compounds in fluorescence. To study the inhibition of aggregation in the presence of Cu^2+, which is known to promote it, an intermediate stock solution of CuCl2 in phosphate buffer (240 µM) was prepared. Then, it was aliquoted to obtain a final concentration of 40 µM in the samples. All samples were incubated in a water bath for 24 h at 37 °C. Then, 180 µL of ThT (5 µM) in glycine-NaOH buffer (50 mM, pH = 8.5) is added to each solution and 200 µL of it is placed in a 96-well plate (BD Falcon) to be read with the fluorimeter. After 5 min of incubation with ThT, fluorescence was measured at 446 nm (ʎ excitation) and 485 nm (ʎ emission).

[2] = biological target: T1, Aβ1–42 peptide; assay: Inhibition of self-mediated Aβ1–42 aggregation, Thioflavin T fluorescence assay; type: biochemical; set-up: Amyloid-β peptide (1–42) was purchased from GeneCust; purchased GeneCust; conditions: compounds 80 μM, without copper; ThT fluorescence; mean of two independent measurements in duplicate; read-out: Inhibition of Aβ1–42 Aggregation (%) Self-Aβ Aggr.
Experimental: as §1, §2, §3

[3] = Protonation constants by pH-potentiometric / UV–Vis spectrophotometric titration; type: physicochemical; conditions: pH 7.4, CL = 10^−5 M
Experimental: As concerns the metal chelation studies, potassium hydrogen phthalate (C8H5KO4, p.a.) was acquired from BDH, whereas dimethylsulfoxide (DMSO, dried, p.a.) and potassium chloride (KCl, p.a.) were supplied by Sigma-Aldrich. Aqueous solutions of metal ions were prepared starting from 1000 ppm standards (Titrisol, Sigma-Aldrich), to obtain solutions FeCl3 0.018 M and CuCl2 0.015 M. The metal content of solutions was evaluated by atomic absorption. Iron stock solution was prepared with an excess of acid chloride to avoid hydrolysis and its concentration in HCl was determined by the usual standard-addition method using 0.1M HCl (Titrisol). The 0.1M HCl solution, used in calibration of the glass electrode and in spectrophotometric titrations, was prepared from a Titrisol ampoule. […]
The spectrophotometric measurements were carried out in a 250–450 nm wavelength range at pH ca. 2.5–11.8. Under the stated experimental conditions, the pKw value (14.27) was determined and subsequently used in the computations. […] The metal hydrolysis model was determined under the defined experimental conditions (I = 0.1 M KCl, 20% w/w DMSO/H2O, T = 25.0 ± 0.1 °C) and the following values of stability constants were included in the fitting of experimental data towards the equilibrium models related to the Fe^3+/L and Cu^2+/L systems: log β (FeH-2) = −6.78, log β (FeH-3) = −10.78; log β (Cu2H-2) = −9.94. […]

SMILES: COc1cc(/C=C/C(=O)NOCc2cccc(Cl)c2)ccc1O [Compound 1d, (E)-N-((3-chlorobenzyl)oxy)-3-(4-hydroxy-3-methoxyphenyl)acrylamide]
- inhibition at 80 µM [1]: 76.1%
- inhibition at 80 µM [2]: 34.1%
- predominant species neutral HL at physiological conditions [3]: 97%

SMILES: COc1cc(/C=C/C(=O)NOCc2ccccc2OC)ccc1O [Compound 1a, (E)-3-(4-hydroxy-3-methoxyphenyl)-N-((2-methoxybenzyl)oxy)acrylamide]
- inhibition at 80 µM [1]: 79.6%
- inhibition at 80 µM [2]: 42.6%
- predominant species neutral HL at physiological conditions [3]: 96%
